These results are taken from patent publication US12544428B2, “Controlled-release CNP agonists with reduced side-effects” (ASCENDIS PHARMA GROWTH DISORDERS A/S, priority 2016, dated 2026).

The conditions of data set [1]: CNP injection, healthy volunteers; cited from earlier work.
Data set [2] is described as follows: Pharmacokinetic profile of CNP-38 after subcutaneous single-dose administration to cynomolgus monkeys. The class given is in vivo. As for the experimental part:
This study was performed in order to test the pharmacokinetics of CNP-38 after subcutaneous (s.c.) administration in cynomolgus monkeys. […] Blood samples were collected at 5, 10, 15, 30, 45 min and 1, 2, 4, 8 hours upon dose.
Method: Plasma levels of CNP were analysed using a commercially available competitive radioimmuno-assay (RK-012-03, Phoenix Pharmaceuticals, CA). The assay was applied essentially as described by the manufacturer. The assay is based on competitive binding between 125I-labelled CNP (supplied in the kit) and unlabeled CNP (from study sample or calibrants) to an anti-CNP antibody. When the concentration of CNP in the sample increases, the amount of 125I-labelled CNP that is able to bind to the antibody decreases. By measuring the amount of 125I-labelled CNP bound as a function of the concentration of peptide, it is possible to construct a calibration curve from which the concentration of peptide in the sample can be determined.
A few changes to the supplied assay protocol were made. These changes included using in-house CNP calibrant and QC samples to secure consistency between assay runs. In order to shorten the duration of the assay, the initial incubation of samples with antibodies was performed at room temperature for 5 hours (instead of 16-24 hours at 4° C.). Due to matrix effects in monkey plasma, the minimal required dilution was set at 1:10, yielding an assay range of 150-1080 pg/mL CNP.

The nature of data set [3]: Evaluation of cardiovascular effects in the conscious telemetered mouse (subcutaneous administration). As to conditions: 800 μg CNP-38 (eq)/kg sc; for MAP: mean ± SD, n = 4. In kind it is in vivo, Crl:CD1(ICR) mice. From the text:
The purpose of this study was to evaluate the haemodynamic side effects of 11i at dose level equivalent to a CNP-38 dose level eliciting haemodynamic side effects (decrease in blood pressure) in the telemetered mouse.
Male Crl:CD1(ICR) mice (age range 8-13 weeks and body weight range 27.3-35.6 g at start of dosing) were surgically implanted with a TA11PA-C10 telemetry transmitter (Data Sciences International (DSI)) in the carotid artery. The body of the transmitter was placed subcutaneously in the lateral flank of the mouse. The mice were dosed subcutaneously in a latin square crossover design with at least 72 hours between dosing occasions. Mice were dosed with 1) vehicle (10 mM succinate, 46.0 g/L mannitol, pH 4.00), 2) CNP-38 (800 μg CNP-38/kg, 10 mM succinate, 46.0 g/L mannitol, pH 4.00) or 3) 11i (800 μg CNP-38 eq/kg, 10 mM succinate, 46.0 g/L mannitol, pH 4.00). At least four mice were included at each dose level. Blood pressure (systolic (SAP), diastolic (DAP) and mean (MAP) and heart rate (HR, derived from blood pressure), were recorded using a digital data capture system linked with a DSITM Ponemah data acquisition and analysis system. The capture system allowed recording of the cardiovascular parameters whilst the mice were in individual cages. On the day of each test session the animals were weighed and a predose recording was performed for at least 60 min prior to dosing. Each mouse was returned to the home cage and the cardiovascular parameters were recorded for approximately 48 hours postdose. Blood pressure and HR were reported at the following time points: −30, −20, −10, 5, 15 and 30 min postdose and 1, 2, 6, 12, 18, 24, 30, 36, 42 and 48 hours postdose. Each time point was presented as the average value of five minute's recording prior to the time point. The monitoring period was selected to cover exposure to the test items both prior to and after Tmax.

In data set [4] the target is recombinant human NEP (Homo sapiens, UniProt P08473). As to conditions: pH 7.4.
Chain of recombinant human NEP (P08473 whole entry): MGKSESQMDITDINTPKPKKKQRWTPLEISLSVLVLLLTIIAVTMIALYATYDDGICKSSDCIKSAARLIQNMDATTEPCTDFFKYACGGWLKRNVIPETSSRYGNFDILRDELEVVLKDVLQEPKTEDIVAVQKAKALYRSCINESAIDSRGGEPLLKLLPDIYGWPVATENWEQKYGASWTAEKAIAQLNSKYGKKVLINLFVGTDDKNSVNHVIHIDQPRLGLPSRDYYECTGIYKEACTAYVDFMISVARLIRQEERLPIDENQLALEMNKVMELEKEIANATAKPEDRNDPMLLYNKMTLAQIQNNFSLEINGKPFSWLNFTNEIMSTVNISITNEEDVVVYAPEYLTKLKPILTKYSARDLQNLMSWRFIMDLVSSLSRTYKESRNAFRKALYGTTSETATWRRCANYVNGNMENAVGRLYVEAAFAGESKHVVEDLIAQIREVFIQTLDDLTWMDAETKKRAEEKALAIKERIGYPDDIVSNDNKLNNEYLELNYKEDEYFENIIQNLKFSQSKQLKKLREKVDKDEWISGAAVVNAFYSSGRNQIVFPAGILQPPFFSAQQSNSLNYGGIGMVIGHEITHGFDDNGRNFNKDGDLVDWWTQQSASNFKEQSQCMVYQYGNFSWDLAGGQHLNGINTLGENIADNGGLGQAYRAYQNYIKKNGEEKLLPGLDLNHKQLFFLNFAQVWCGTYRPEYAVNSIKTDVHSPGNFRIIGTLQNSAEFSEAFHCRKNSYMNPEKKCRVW
Method: In order to determine the in vitro stability of various CNP variants including different peptide chain lengths and PEGylations using different PEGylation sites and PEG molecules in the presence of Neutral Endopeptidase (NEP), a NEP digest assay was established. This assay monitored the decrease of the non-digested CNP variant (normalized with the internal standard PFP) over time in reference to the t0-time point.
In detail, recombinant human NEP (2.5 μg/mL final concentration) and the standard pentafluorophenol (PFP; 40 μg/mL final concentration) were added to the CNP variant (100 μg CNP equivalents/mL) in digest buffer (50 mM Tris-HCl, pH 7.4, 10 mM NaCl). The solution was incubated at 37° C. and 500 rpm for up to 4 days. Samples were taken at different time intervals. The reaction was stopped by a combined reduction and heat denaturation adding TCEP (tris(2-carboxyethyl)phosphine; 25 mM final concentration) and incubating the mixture at 95° C., 500 rpm for 5 minutes. The resulting reaction products were assigned using HPLC-MS. The half life of each CNP variant was calculated via the ratio change in the HPLC-UV peak areas of CNP and PFP over time.
For data set [5], the target named is T1, NPR-C (Homo sapiens, UniProt P17342).
T1 construct: expressed in transfected cells; host or cells: Hek293, lentiviral transduction, CMV promoter, puromycin selection
T1 sequence (P17342 27-541): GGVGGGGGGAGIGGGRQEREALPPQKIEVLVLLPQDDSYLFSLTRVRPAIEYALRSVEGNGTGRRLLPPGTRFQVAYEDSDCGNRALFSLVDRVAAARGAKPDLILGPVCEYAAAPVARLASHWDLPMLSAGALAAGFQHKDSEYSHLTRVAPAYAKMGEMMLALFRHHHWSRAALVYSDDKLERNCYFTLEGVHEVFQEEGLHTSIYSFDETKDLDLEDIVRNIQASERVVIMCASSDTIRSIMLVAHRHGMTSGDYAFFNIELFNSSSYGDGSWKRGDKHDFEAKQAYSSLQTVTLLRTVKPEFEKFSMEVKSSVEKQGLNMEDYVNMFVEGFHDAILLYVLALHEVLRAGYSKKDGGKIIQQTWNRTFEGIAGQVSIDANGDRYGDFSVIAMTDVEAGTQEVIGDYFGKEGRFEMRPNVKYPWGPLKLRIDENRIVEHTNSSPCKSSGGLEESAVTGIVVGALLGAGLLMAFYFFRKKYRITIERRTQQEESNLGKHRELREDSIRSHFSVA
The experiment in a line: NPR-C affinity assay. In kind it is binding. The note with it: residual NPR-C affinity, NPR-C expressing Hek293 cells, competition with fluorescein-labelled CNP 27d.

For data set [6], the target named is T2, NPR-B receptor (Mus musculus, UniProt Q6VVW5).
T2 construct: These cells express endogenously the NPR-B receptor on the cell surface; endogenous in cells; host or cells: NIH-3T3 (murine embryo fibroblast)
T2 sequence (Q6VVW5 23-1047 limits assumed): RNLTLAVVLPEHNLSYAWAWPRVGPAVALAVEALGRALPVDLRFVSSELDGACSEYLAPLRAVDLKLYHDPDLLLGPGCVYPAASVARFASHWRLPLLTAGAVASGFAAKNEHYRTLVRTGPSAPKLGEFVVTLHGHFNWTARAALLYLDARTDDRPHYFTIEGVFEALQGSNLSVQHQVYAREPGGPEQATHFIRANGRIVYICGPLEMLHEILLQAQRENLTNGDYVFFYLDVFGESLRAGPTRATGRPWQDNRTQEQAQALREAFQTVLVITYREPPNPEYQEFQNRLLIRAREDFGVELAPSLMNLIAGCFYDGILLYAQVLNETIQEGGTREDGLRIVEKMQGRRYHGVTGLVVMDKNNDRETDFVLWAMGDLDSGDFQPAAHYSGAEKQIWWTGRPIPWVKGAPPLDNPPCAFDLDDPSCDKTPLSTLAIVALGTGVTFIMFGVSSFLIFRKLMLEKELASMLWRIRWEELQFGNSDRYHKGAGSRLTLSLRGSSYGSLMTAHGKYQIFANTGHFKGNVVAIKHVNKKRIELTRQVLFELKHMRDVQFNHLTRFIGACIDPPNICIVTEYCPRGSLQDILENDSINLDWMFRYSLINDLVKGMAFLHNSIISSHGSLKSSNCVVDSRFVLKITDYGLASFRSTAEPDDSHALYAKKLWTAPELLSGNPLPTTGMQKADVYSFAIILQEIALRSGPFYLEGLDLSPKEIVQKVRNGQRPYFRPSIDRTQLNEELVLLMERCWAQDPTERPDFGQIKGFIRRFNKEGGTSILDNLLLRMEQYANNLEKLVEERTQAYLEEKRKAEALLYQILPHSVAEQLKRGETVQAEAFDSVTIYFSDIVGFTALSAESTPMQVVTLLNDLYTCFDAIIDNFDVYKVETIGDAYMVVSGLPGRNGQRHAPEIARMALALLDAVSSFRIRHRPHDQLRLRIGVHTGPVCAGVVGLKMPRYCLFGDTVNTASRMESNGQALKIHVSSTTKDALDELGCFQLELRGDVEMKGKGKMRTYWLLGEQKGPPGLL
Description: Functional cGMP stimulation in NIH-3T3 cells with CNP variants. In kind it is cell-based, murine. The note with it: residual NPR-B activity vs non-PEGylated CNP-38, cGMP. As for the experimental part:
As used herein “EC50” with regard to controlled-release CNP agonist and CNP agonist refers to the concentration of controlled-release CNP agonist and CNP agonist with which a half-maximum cGMP production of NPR-B is elicited. NPR-B activity in the form of its EC50 of the controlled-release CNP agonist, of the released CNP agonist and of CNP-22 is measured by cultivating NIH-3T3 (Murine Embryo Fibroblast cell line) cells which express NPR-B on their cell surface, incubating the cells with the controlled-release CNP agonist, the corresponding released CNP agonist or CNP-22, respectively, and determining the intracellular production of the second messenger cGMP with a standard cGMP assay. In particular the assay is performed as follows: • (1) murine NIH-3T3 cells expressing endogenous NPR-B are cultivated in DMEM F-12 medium with 5% FBS and 5 mM glutamine at 37° C. and 5% CO2; • (2) for each assay 50,000 cells are resuspended in Dulbecco's PBS with IBMX and incubated with either the controlled-release CNP agonist, the corresponding released CNP agonist or CNP-22; each in different concentrations; • (3) after incubating for 30 min at 37° C. and 5% CO2, the cells are lysed and cGMP levels are determined; and • (4) generating an EC50 value from the determined cGMP levels.
Functional activity of CNP variants were determined in a cell-based assay with NIH-3T3 cells (Murine Embryo Fibroblast cell line). These cells express endogenously the NPR-B receptor on the cell surface. Stimulation of the NPR-B receptor with CNP leads to intracellular production of the second messenger cGMP which is detected with a commercially available cGMP assay. NIH-3T3 cells were routinely cultured in DMEM F-12 medium with 5% FBS and 5 mM glutamine at 37° C. and 5% CO2. For each assay, 50,000 cells were resuspended in stimulation buffer (Dulbecco's PBS with IBMX) and incubated with the CNP variants in different concentrations. CNP (dilutions were made in PBS with 0.2% BSA). After incubation of 30 min at 37° C. and 5% CO2, the cells were lyzed and cGMP levels were determined with a commercially available cGMP TR-FRET assay (Cisbio, cGMP kit, Cat. No. 62GM2PEB). PEGylated CNP variants were always characterized in comparison with the non-PEGylated version in the same experiment batch. If possible, evaluation of the residual activity was done via the relative EC50-parameter of the resulting dose-response curve (restricted model with common slope).
11i was incubated under physiological conditions (1 mg CNP-38 eq/mL), as described in Example 20. After 7 d, released CNP-38 was isolated by RP-HPLC and analyzed for bioactivity as described in Example 21.

Turning to “CNP: natriuretic peptide CNP injected in healthy volunteers (Igaki et al.)”, in data set [1], the heart rate entry is given as “significant increase in heart rate”; the “systolic and diastolic blood pressure” value is “transient but significant decrease in both systolic and diastolic blood pressure”.

As for `CC[C@H](C)[C@@H]1NC(=O)[C@H](CCCNC(=N)N)NC(=O)[C@H](CC(=O)O)NC(=O)[C@H](CC(C)C)NC(=O)[C@H](CCCCN)NC(=O)[C@H](CC(C)C)NC(=O)CNC(=O)[C@H](Cc2ccccc2)NC(=O)[C@@H](NC(=O)CNC(=O)[C@H](CCCCN)NC(=O)[C@H](CO)NC(=O)[C@H](CC(C)C)NC(=O)CNC(=O)[C@H](CCCCN)NC(=O)[C@H](CCCCN)NC(=O)[C@H](CC(N)=O)NC(=O)[C@H](C)NC(=O)CNC(=O)[C@H](CCCCN)NC(=O)[C@H](Cc2ccc(O)cc2)NC(=O)[C@H](CCCCN)NC(=O)[C@H](CCCNC(=N)N)NC(=O)[C@H](C)NC(=O)[C@H](CC(N)=O)NC(=O)[C@@H]2CCCN2C(=O)[C@H](Cc2c[nH]cn2)NC(=O)[C@H](CCC(=O)O)NC(=O)[C@H](CCC(N)=O)NC(=O)[C@@H](N)CC(C)C)CSSC[C@@H](C(=O)O)NC(=O)CNC(=O)[C@H](CC(C)C)NC(=O)CNC(=O)[C@H](CO)NC(=O)[C@H](CCSC)NC(=O)[C@H](CO)NC(=O)CNC1=O` [CNP-38, reference compound], the “Half-life (mean)” value in data set [2] (cynomolgus monkey, in vivo, sc, 40 ug/kg) is reported as 6.6 min. Also, the half-life (as a rule, the time in which the quantity being followed falls by half) in data set [2] (male, cynomolgus monkey, in vivo, sc, 40 ug/kg) was about 7 min. In addition, the tolerability entry in data set [2] (single s.c. 40 μg/kg) is reported as “well tolerated”. Further, in data set [3], the HR entry was “not impacted”. Moreover, the “MAP versus vehicle at the remaining ten time points” value in data set [3] (1 to 48 hours postdose) is recorded as “no difference in MAP”. Also, the “change in MAP compared to predose” value in data set [3] (5, 15 and 30 min post dose, CNP-38: 3 of 4 animals) is reported as “significant decrease in MAP”. Besides, the MAP in data set [3] (5 min post dose) is 102.0 ± 7.5 mmHg; in data set [3] (15 min post dose) it was 89.5 ± 29.4 mmHg; in data set [3] (30 min post dose), 99.5 ± 25.2 mmHg; in data set [3] (predose) it was 106.8 ± 13.4 mmHg.

Turning to “Permanent Lys16 CNP-34 PEG 5 kDa Conjugate [Compound 17e]”, the half-life in data set [4] was 54.2 h.

On to “Permanent Lys22 CNP-34 PEG 5 kDa Conjugate [Compound 18e]”, for which, in data set [4], the half-life was 38.9 h.

With “Permanent Lys26 CNP-38 PEG 5 kDa Conjugate [Compound 19e]”, in data set [4], the half-life was 62.8 h. Moreover, in data set [5], the “IC50 of PEGylated CNP-38/IC50 CNP-38” value worked out at 1.1. In data set [6], the “EC50 compound/EC50 CNP-38” value was over 100.
